Assay [1] has as its target T1, Serine/threonine-protein kinase Chk1 (Homo sapiens) (UniProt O14757).
T1 sequence (whole entry): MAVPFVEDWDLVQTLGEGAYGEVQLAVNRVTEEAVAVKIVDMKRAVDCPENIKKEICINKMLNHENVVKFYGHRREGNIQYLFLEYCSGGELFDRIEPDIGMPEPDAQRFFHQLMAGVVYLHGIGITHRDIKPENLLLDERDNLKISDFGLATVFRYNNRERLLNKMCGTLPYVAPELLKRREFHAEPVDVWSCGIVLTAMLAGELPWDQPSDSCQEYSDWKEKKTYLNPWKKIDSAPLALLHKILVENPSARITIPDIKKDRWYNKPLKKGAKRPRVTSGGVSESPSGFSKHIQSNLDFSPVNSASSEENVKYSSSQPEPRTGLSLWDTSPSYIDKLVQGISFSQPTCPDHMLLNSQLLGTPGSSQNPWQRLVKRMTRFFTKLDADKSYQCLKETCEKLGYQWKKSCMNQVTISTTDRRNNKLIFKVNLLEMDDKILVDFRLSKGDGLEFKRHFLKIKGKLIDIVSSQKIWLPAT
As to the kind of experiment: Inhibition of C-terminal 6-His tagged human Chk1 at 100 uM by HTRF assay in presence of 0.1 mM ATP. Background: Time-resolved FRET reads energy transfer from a long-lived donor to a nearby acceptor.

Assay [2] deals with T2, Serine/threonine-protein kinase Chk1 (Homo sapiens, UniProt O14757).
T2 sequence (O14757 whole entry): T1 sequence (whole entry)
Put plainly: Inhibition of C-terminal 6-His tagged human Chk1 by HTRF assay in presence of 0.1 mM ATP.

The target in assay [3] is T2, Serine/threonine-protein kinase Chk1. Put plainly: Inhibition of C-terminal 6-His tagged human Chk1 by HTRF assay in presence of 2.0 mM ATP.

Molecules are shown by their SMILES. Where only a bound is given, the exact number is not on record here.

On to `CCCCC(Sc1nc2ccccc2c(=O)n1Cc1cccnc1)C(=O)N1CCC(C(N)=O)CC1` (stereo not drawn), for which, in assay [1], the inhibition worked out at 26%.
Turning to `CCCCC(Sc1nc2cc(C)ccc2c(=O)n1-c1cccc(Cl)c1)C(=O)N1CCC(C(N)=O)CC1` (stereo not drawn), the IC50 in assay [2] was 28 µM.
Turning to `CCCCC(Sc1nc2c(OC)cccc2c(=O)n1-c1cccc(Cl)c1)C(=O)N1CCC(C(N)=O)CC1` (stereo not drawn), the IC50 in assay [2] worked out at 21 µM.
Same read-out and setting: with `CCCCC(Sc1nc2ccccc2c(=O)n1-c1ccccc1)C(=O)N1CCC(c2ccccc2)(c2ccccc2)CC1` (stereo not drawn) the figure was 4.5 µM.
For `CCCCC(Sc1nc2ccccc2c(=O)n1C1CCCCC1)C(=O)N1CCC(C(N)=O)CC1` (stereo not drawn), in assay [1], the inhibition was found to be 17%.
Turning to `CCCCC(Sc1nc2ccccc2c(=O)n1-c1ccccc1)C(=O)N1CCS(=O)(=O)CC1` (stereo not drawn), the IC50 in assay [2] came out at 6 µM.
On the same count and under the same terms, in the case of `CCCCC(Sc1nc2ccccc2c(=O)n1-c1ccccc1)C(=O)NC(C)(C)C` (stereo not drawn) it was more than 100 µM; in that of `CCCCC(Sc1nc2cccc(C)c2c(=O)n1-c1cccc(Cl)c1)C(=O)N1CCC(C(N)=O)CC1` (stereo not drawn), more than 100 µM.
Same read-out and setting: in the case of `CCCCC(Sc1nc2ccccc2c(=O)n1-c1ccccc1)C(=O)N1CCCC2(CCCNC2)C1` (stereo not drawn) it was 3.8 µM.
In the case of `CCCCC(Sc1nc2ccccc2c(=O)n1-c1ccnc(Cl)c1)C(=O)N1CCC(C(N)=O)CC1` (stereo not drawn), the inhibition in assay [1] turned out to be 20%.
For `CCCCC(Sc1nc2ccccc2c(=O)n1-c1ccccc1)C(=O)N1CCN(c2ccccc2)CC1` (stereo not drawn), the IC50 in assay [2] stood at 3.3 µM.
Regarding `CCCCC(Sc1nc2ccccc2c(=O)n1C)C(=O)N1CCC(C(N)=O)CC1` (stereo not drawn), the inhibition in assay [1] amounted to 48%.
In the case of `CCCCC(Sc1nc2c(C)cccc2c(=O)n1-c1cccc(Cl)c1)C(=O)N1CCC(C(N)=O)CC1` (stereo not drawn), in assay [2], the IC50 came out at 17 µM.
Same read-out and setting: with `CCCCC(Sc1nc2ccccc2c(=O)n1-c1ccccc1Cl)C(=O)N1CCC(C(N)=O)CC1` (stereo not drawn) the figure was 41 µM; with `CC(C)C(Sc1nc2ccccc2c(=O)n1-c1cccc(Cl)c1)C(=O)N1CCC(C(N)=O)CC1` (stereo not drawn), more than 100 µM.
For the compound `CCCCC(Sc1nc2ccccc2c(=O)n1-c1ccccc1)C(=O)N(CC)CC` (stereo not drawn), the inhibition in assay [1] is 62%.
With `CCCCC(Sc1nc2ccccc2c(=O)n1-c1ccccc1)C(=O)N1CCC(C(N)=O)CC1` (stereo not drawn), the IC50 in assay [3] came to 24 µM; in assay [2], 17 µM.
As for `CCCCC(Sc1nc2ccccc2c(=O)n1-c1cccnc1)C(=O)N1CCC(C(N)=O)CC1` (stereo not drawn), in assay [1], the inhibition worked out at 35%.
`CCCCC(Sc1nc2ccccc2c(=O)n1-c1ccccc1)C(=O)NC1CC2CCC1C2` (stereo not drawn): the inhibition in assay [1] turned out to be 3%.
With `CCCCC(Sc1nc2ccccc2c(=O)n1-c1ccccc1)C(=O)NC1CCCCC1` (stereo not drawn), in assay [2], the concentration for half-maximal inhibition (IC50) is more than 100 µM.
Still for that read-out and setting: with `CCCCC(Sc1nc2ccccc2c(=O)n1-c1ccc(Cl)cc1)C(=O)N1CCC(C(N)=O)CC1` (stereo not drawn) the figure was more than 100 µM; with `NC(=O)C1CCN(C(=O)C(Sc2nc3ccccc3c(=O)n2-c2cccc(Cl)c2)c2ccccc2)CC1` (stereo not drawn), 21 µM.
Take `CCCCC(Sc1nc2ccccc2c(=O)n1C(C)C)C(=O)N1CCC(C(N)=O)CC1` (stereo not drawn): in assay [1], the inhibition was found to be 20%.
As for `CC(C)CC(Sc1nc2ccccc2c(=O)n1-c1cccc(Cl)c1)C(=O)N1CCC(C(N)=O)CC1` (stereo not drawn), the IC50 in assay [2] stood at 2.8 µM.
The same measure, in the same setting: with `CCCCC(Sc1nc2ccccc2c(=O)n1-c1ccccc1)C(=O)NC12CC3CC(CC(C3)C1)C2` (stereo not drawn) the figure was more than 100 µM.
In the case of `CCCCC(Sc1nc2ccc(C)cc2c(=O)n1-c1cccc(Cl)c1)C(=O)N1CCC(C(N)=O)CC1` (stereo not drawn), in assay [1], the inhibition was determined as 30%.
Take `CCCCC(Sc1nc2c(O)cccc2c(=O)n1-c1cccc(Cl)c1)C(=O)N1CCC(C(N)=O)CC1` (stereo not drawn): the concentration for half-maximal inhibition (IC50) in assay [2] came out at 20 µM.

The term inhibition denotes the change of the read-out against control, counted positive when it falls. Broadly, the IC50 is the concentration at which inhibition is half-maximal.

The record behind these values is ChEMBL document CHEMBL1136862, “Development of thioquinazolinones, allosteric Chk1 kinase inhibitors” (Bioorg Med Chem Lett, 2009).
